Tests used:
experimental emphysema = test: Alveolar repair in rat experimental emphysema, oral dosing; format: in vivo, rats; conditions: 1 mg/kg/PO daily for two weeks
Experimental: Three (3) weeks post injury animals were treated with vehicle (Capmul solution) or retinoids prepared in Capmul and dosed orally at 1, 3, and 10 mg/kg body weight. Animals were treated for 14 days prior to termination of study.
Dosage was at 1 mg/kg/PO daily for two weeks.

tropoelastin gene = test: RAR transactivation of steady state tropoelastin gene in normal human lung fibroblasts (CCD-16Lu); format: cell-based
Experimental: Transactivation of the tropoelastin gene in normal human lung fibroblasts (CCD-16Lu) was performed as described below. Cells were grown to confluence at which time fresh media +/- ATRA or selective retiniod was added to the basal culture. ATRA and/or selective retiniods were used at a concentration of 1×10^-7 M. The cell layer was lysed using a guanidinium-based buffer (TRIZOL/Sigma) for RNA extraction and analysis. Amplification of tropoelastin and GAPDH RNA was performed by standard quantitative RT-PCR (TAQMAN, Perken/Elmer) using appropriate selective primers. Tropo-elastin gene expression was normalized to the expression of standard house-keeping gene (GAPDH).
Samples were run in triplicate.

RARβ = molecular target: T1, RARβ (Homo sapiens, UniProt P10826); test: Binding, RARβ (ligand binding assay); conditions: Table II
T1 sequence (P10826 1-455): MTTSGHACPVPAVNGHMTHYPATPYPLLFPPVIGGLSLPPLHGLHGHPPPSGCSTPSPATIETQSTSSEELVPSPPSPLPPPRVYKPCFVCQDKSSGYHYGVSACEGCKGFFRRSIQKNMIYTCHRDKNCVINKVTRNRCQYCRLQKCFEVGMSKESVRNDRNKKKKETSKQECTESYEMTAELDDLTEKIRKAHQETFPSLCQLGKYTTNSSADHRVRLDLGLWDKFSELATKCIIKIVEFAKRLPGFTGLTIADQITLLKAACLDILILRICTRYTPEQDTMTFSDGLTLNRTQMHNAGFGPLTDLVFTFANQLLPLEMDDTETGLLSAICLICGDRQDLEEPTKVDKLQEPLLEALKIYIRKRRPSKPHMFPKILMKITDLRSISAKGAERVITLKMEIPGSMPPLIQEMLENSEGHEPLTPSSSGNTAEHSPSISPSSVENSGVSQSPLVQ
Excerpt: The RARγ agonist selectivity of a compound can be determined by routine ligand binding assays known to one of skill in the art such as described in C. Apfel et al., Proc. Nat.

RARα = molecular target: T2, RARα (Homo sapiens, UniProt P10276); test: Transactivation, RARα; format: cell-based; conditions: Table II
T2 sequence (P10276 1-462): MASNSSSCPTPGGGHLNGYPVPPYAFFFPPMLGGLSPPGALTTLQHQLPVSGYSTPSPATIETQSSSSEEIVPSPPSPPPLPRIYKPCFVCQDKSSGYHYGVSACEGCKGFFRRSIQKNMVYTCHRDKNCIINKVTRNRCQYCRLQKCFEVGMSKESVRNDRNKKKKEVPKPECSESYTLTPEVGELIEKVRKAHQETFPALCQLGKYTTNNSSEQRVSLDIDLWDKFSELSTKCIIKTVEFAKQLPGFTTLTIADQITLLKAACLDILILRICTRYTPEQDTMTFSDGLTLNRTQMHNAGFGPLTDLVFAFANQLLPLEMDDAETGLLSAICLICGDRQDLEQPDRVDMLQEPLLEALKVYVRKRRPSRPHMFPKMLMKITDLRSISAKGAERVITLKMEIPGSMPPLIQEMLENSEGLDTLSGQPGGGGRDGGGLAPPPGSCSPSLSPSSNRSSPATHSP
Excerpt: As used herein, the term "transactivation" refers to the ability of a retinoid to activate the transcription of a gene where the gene transcription is initiated by the binding of a ligand to the particular retinoic acid receptor being tested, i.e., RARα, RARβ, or RARγ. Determining the ability of a compound to transactivate a retinoic acid receptor may be performed by methods known to those of skill in the art. […] Apfel etal., Proc. Nat.

[1] = test system: elastase-induced emphysema; test: Alveolar repair in rat model of elastase-induced emphysema, intraperitoneal; format: in vivo, male Sprague Dawley rats; parameters: Alveolar Area: unit not given here
Experimental: Animals were divided into treatment groups of approximately eight. […] Three weeks post injury ATRA or a RAR selective agonist was dissolved in DMSO (20 mg/ml) and stored at -20 C. Fresh working stocks were prepared fresh daily by dilution in corn oil to a final concentration of 2 mg/ml. […] Control groups were challenged with elastase and 21 days later treated with Vehicle (DMSO/PBS) for 14 days. Animals were sacrificed 24 hours after the last dose of by exsanguination under deep anesthesia. Blood was collected at time of exanguination for analysis of changes in blood chemistry from respective treatments. The lungs were inflated with 10% neutral buffered formalin by intratracheal instillation at a constant rate (1 ml/gram body mass/min). The lung was excised and immersed in fixative for 24 hours prior to processing. Standard methods were used to prepare 5 um paraffin sections. Sections were stained with Hematoxylin and Eosin (H%E). Computerized Morphometric analysis was performed to determine the average alveolar size and alveolar number.

elastase damaged rats = test: Pulmonary gas exchange in elastase damaged rats; format: in vivo
Experimental: Pulmonary and arterial blood gases were determined in elastase damaged rats±retinoid treatment prior to termination of study. Rats were placed under deep anesthesia using pentobarbital (50 mg/kg, i.p. and a tracheal cannula (PE 240) was inserted. The rats were artificially ventilated (f=90, TV=approx 0.5 ml/100 g BW) using a small animal respiratory pump (Harvard). For each rat, the pump parameters were adjusted to establish an arterial CO2 level for the pulmonary artery (PCO2) of 30-35 torr. Arterial blood samples (approx 0.2 ml) were taken from the abdominal aorta (AO2) and immediately analyzed by pHOx blood gas. Data are presented as percent (%) recovery relative to elastase +vehicle treated rats.

- IC50 (RARβ): 3 µM
- EC50 (RARα): 1 µM
SMILES: CCCCCCc1cc2c(cc1/C=C/c1ccc(C(=O)O)cc1)C(C)(C)CCC2(C)C [RAR Agonist 3]
- % Repair (experimental emphysema): 73.7%
- Tropo-elastin Expression (tropoelastin gene; CCD-16Lu, 1×10^-7 M, RT-PCR, triplicate, untreated control 30.90): 68.58 (Elastin/GAPDH) × 10^5
- tropoelastin gene induction (in words) (tropoelastin gene; human lung fibroblasts, compared to the control): markedly induces tropoelastin gene induction
- % Repair ([1]; 0.5 mg/kg ip once daily, from 21 days post injury, 14 days): > 70%
- Alveolar Area ([1]; 0.5 mg/kg ip once daily, from 21 days post injury, 14 days, naive 1637 +/- 153, elastase + vehicle 3570 +/- 319): 1929 +/- 150
- alveolar repair (in words) ([1]; elastase-treated rats, 0.5 mg/kg ip): markedly induce alveolar repair
- light micrographs of lung sections (in words) ([1]; rat lung damaged by elastase and then treated, compared to normal rat lung): showed alveolar area similar to the normal rat lung
- PCO2, recovery relative to elastase + vehicle treated rats (elastase damaged rats; 0.01 mg/kg): 84.6%
- PO2, recovery relative to elastase + vehicle treated rats (elastase damaged rats; 0.01 mg/kg): 49.8%
- AO2, recovery relative to elastase + vehicle treated rats (elastase damaged rats; abdominal aorta, 0.01 mg/kg): 100%
- gas exchange (in words) (elastase damaged rats; elastase-damaged rats): more effective and more potent than the pan agonist (ATRA)
